Earlier results, collected in patent US9586989B1, “Non-toxic skin cancer therapy with copper peptides” (Skin Biology, Inc., priority 2011, dated 2017).

Assays:
[1] = tested on: 54 human genes overexpressed in patients with aggressive metastatic form of colon cancer; settings: for concentration that produced downregulation of "metastatic" genes: Connectivity Map perturbagen search
Ehrlich ascites cells = settings: injection for 12 days; mixture of 8 micrograms ascorbic acid and 8 micrograms copper 2+ complex

Molecule | concentration that produced downregulation of "metastatic" genes [1] | share of genes in which RNA production was suppressed ([1]; of 54 human genes overexpressed in aggressive metastatic colon cancer, GHK without copper 2+) | share of mice that lived for a long time and resisted re-establishment of tumor cells (Ehrlich ascites cells) | share of mice with prolonged life span (Ehrlich ascites cells)
O=C1C=C2C=C[C@@H]3C[C@@]2(O1)[C@H]1CCCCN31 [securinine] | 18 µM |  |  | 
Gly-L-His-L-Lys [GHK] | 1 µM | 70% |  | 
copper 2+ complexed to Glycyl-Glycyl-L-Histidine |  |  | 40% | 60%
